# Test results as given in ChEMBL document CHEMBL1629583, “Establishment of in vitro susceptibility testing methodologies and comparative activities of piperacillin in combination with the penem {beta}-lactamase inhibitor BLI-489” (2009).
# Assays:
# Format in all cases: functional
# Burkholderia cepacia = test: Antimicrobial activity against Burkholderia cepacia clinical isolate after 18 to 22 hrs by broth microdilution method
# [1] = test system: Stenotrophomonas maltophilia; test: Antimicrobial activity against Stenotrophomonas maltophilia clinical isolate after 18 to 22 hrs by broth microdilution method
# Pseudomonas aeruginosa = test: Antimicrobial activity against Pseudomonas aeruginosa clinical isolate after 18 to 22 hrs by broth microdilution method
# Haemophilus influenzae [2] = test: Antimicrobial activity against beta-lactamase-producing Haemophilus influenzae clinical isolate after 18 to 22 hrs by broth microdilution method
# Haemophilus influenzae [3] = test: Antimicrobial activity against beta-lactamase-negative Haemophilus influenzae clinical isolate after 18 to 22 hrs by broth microdilution method
# [4] = test system: Haemophilus parainfluenzae; test: Antimicrobial activity against Haemophilus parainfluenzae clinical isolate after 18 to 22 hrs by broth microdilution method
# Moraxella catarrhalis = test: Antimicrobial activity against Moraxella catarrhalis clinical isolate after 18 to 22 hrs by broth microdilution method
# Citrobacter koseri = test: Antimicrobial activity against Citrobacter koseri clinical isolate after 18 to 22 hrs by broth microdilution method
# Enterobacter cloacae [5] = test: Antimicrobial activity against Enterobacter cloacae clinical isolate after 18 to 22 hrs by broth microdilution method
# Escherichia coli [6] = test: Antimicrobial activity against class A extended spectrum beta-lactamase- and class D OXA- producing Escherichia coli clinical isolate after 18 to 22 hrs by broth microdilution method
# Escherichia coli [7] = test: Antimicrobial activity against Escherichia coli clinical isolate after 18 to 22 hrs by broth microdilution method
# Escherichia coli [8] = test: Antimicrobial activity against class A extended spectrum beta-lactamase- producing Escherichia coli clinical isolate after 18 to 22 hrs by broth microdilution method
# Escherichia coli [9] = test: Antimicrobial activity against AmpC beta-lactamase-producing Escherichia coli clinical isolate after 18 to 22 hrs by broth microdilution method
# Citrobacter freundii [10] = test: Antimicrobial activity against AmpC beta-lactamase-producing Citrobacter freundii clinical isolate after 18 to 22 hrs by broth microdilution method
# Klebsiella aerogenes [11] = test: Antimicrobial activity against AmpC beta-lactamase-producing Enterobacter aerogenes clinical isolate after 18 to 22 hrs by broth microdilution method
# Enterobacter cloacae [12] = test: Antimicrobial activity against AmpC beta-lactamase-producing Enterobacter cloacae clinical isolate after 18 to 22 hrs by broth microdilution method
# Serratia marcescens [13] = test: Antimicrobial activity against AmpC beta-lactamase-producing Serratia marcescens clinical isolate after 18 to 22 hrs by broth microdilution method
# Klebsiella aerogenes [14] = test: Antimicrobial activity against Enterobacter aerogenes clinical isolate after 18 to 22 hrs by broth microdilution method
# Citrobacter freundii [15] = test: Antimicrobial activity against Citrobacter freundii clinical isolate after 18 to 22 hrs by broth microdilution method
# Klebsiella pneumoniae [16] = test: Antimicrobial activity against Klebsiella pneumoniae clinical isolate after 18 to 22 hrs by broth microdilution method
# Klebsiella pneumoniae [17] = test: Antimicrobial activity against class A extended spectrum beta-lactamase- producing Klebsiella pneumoniae clinical isolate after 18 to 22 hrs by broth microdilution method
# Klebsiella pneumoniae [18] = test: Antimicrobial activity against class A extended spectrum beta-lactamase- and class D OXA- producing Klebsiella pneumoniae clinical isolate after 18 to 22 hrs by broth microdilution method
# Klebsiella pneumoniae [19] = test: Antimicrobial activity against AmpC- producing Klebsiella pneumoniae clinical isolate after 18 to 22 hrs by broth microdilution method
# Klebsiella oxytoca = test: Antimicrobial activity against Klebsiella oxytoca clinical isolate after 18 to 22 hrs by broth microdilution method
# Serratia marcescens [20] = test: Antimicrobial activity against Serratia marcescens clinical isolate after 18 to 22 hrs by broth microdilution method
# Morganella morganii = test: Antimicrobial activity against Morganella morganii clinical isolate after 18 to 22 hrs by broth microdilution method
# Proteus mirabilis = test: Antimicrobial activity against Proteus mirabilis clinical isolate after 18 to 22 hrs by broth microdilution method
# Proteus vulgaris = test: Antimicrobial activity against Proteus vulgaris clinical isolate after 18 to 22 hrs by broth microdilution method
# Providencia rettgeri = test: Antimicrobial activity against Providencia rettgeri clinical isolate after 18 to 22 hrs by broth microdilution method
# Providencia stuartii = test: Antimicrobial activity against Providencia stuartii clinical isolate after 18 to 22 hrs by broth microdilution method
# [21] = test system: Acinetobacter calcoaceticus; test: Antimicrobial activity against Acinetobacter calcoaceticus clinical isolate after 18 to 22 hrs by broth microdilution method
# Acinetobacter baumannii = test: Antimicrobial activity against Acinetobacter baumannii clinical isolate after 18 to 22 hrs by broth microdilution method
# [22] = test system: Acinetobacter haemolyticus; test: Antimicrobial activity against Acinetobacter haemolyticus clinical isolate after 18 to 22 hrs by broth microdilution method
# Acinetobacter johnsonii = test: Antimicrobial activity against Acinetobacter johnsonii clinical isolate after 18 to 22 hrs by broth microdilution method
# Acinetobacter junii = test: Antimicrobial activity against Acinetobacter junii clinical isolate after 18 to 22 hrs by broth microdilution method
# Acinetobacter lwoffii = test: Antimicrobial activity against Acinetobacter lwoffii clinical isolate after 18 to 22 hrs by broth microdilution method
# Bacteroides fragilis = test: Antimicrobial activity against Bacteroides fragilis clinical isolate after 18 to 22 hrs by broth microdilution method
# [23] = test system: Bacteroides thetaiotaomicron; test: Antimicrobial activity against Bacteroides thetaiotaomicron clinical isolate after 18 to 22 hrs by broth microdilution method
# Bacteroides uniformis = test: Antimicrobial activity against Bacteroides uniformis clinical isolate after 18 to 22 hrs by broth microdilution method
# Clostridium perfringens = test: Antimicrobial activity against Clostridium perfringens clinical isolate after 18 to 22 hrs by broth microdilution method
# [24] = test system: Peptostreptococcus anaerobius; test: Antimicrobial activity against Peptostreptococcus anaerobius clinical isolate after 18 to 22 hrs by broth microdilution method
# Parvimonas micra = test: Antimicrobial activity against Peptostreptococcus micros clinical isolate after 18 to 22 hrs by broth microdilution method
compound,measurement,setting,value
CO/N=C(\C(=O)N[C@@H]1C(=O)N2C(C(=O)O)=C(CSc3nc(=O)c(O)nn3C)CS[C@H]12)c1csc(N)n1 [CEFTRIAXONE],MIC50,Burkholderia cepacia,32 µg/mL
same,MIC90,Burkholderia cepacia,> 32 µg/mL
same,MIC,[1],> 32 µg/mL
same,MIC50,[1],> 32 µg/mL
same,MIC90,[1],> 32 µg/mL
same,MIC50,Pseudomonas aeruginosa,> 32 µg/mL
same,MIC90,Pseudomonas aeruginosa,> 32 µg/mL
same,MIC,Haemophilus influenzae [2],≤ 0.03 µg/mL
same,MIC50,Haemophilus influenzae [2],≤ 0.03 µg/mL
same,MIC90,Haemophilus influenzae [2],≤ 0.03 µg/mL
same,MIC,Haemophilus influenzae [3],≤ 0.03 µg/mL
same,MIC50,Haemophilus influenzae [3],≤ 0.03 µg/mL
same,MIC90,Haemophilus influenzae [3],≤ 0.03 µg/mL
same,MIC,[4],≤ 0.03 µg/mL
same,MIC50,[4],≤ 0.03 µg/mL
same,MIC90,[4],≤ 0.03 µg/mL
same,MIC,Moraxella catarrhalis,≤ 0.03 µg/mL
same,MIC50,Moraxella catarrhalis,≤ 0.03 µg/mL
same,MIC90,Moraxella catarrhalis,0.5 µg/mL
same,MIC50,Citrobacter koseri,0.06 µg/mL
same,MIC90,Citrobacter koseri,0.25 µg/mL
same,MIC50,Enterobacter cloacae [5],0.5 µg/mL
same,MIC90,Enterobacter cloacae [5],> 32 µg/mL
same,MIC,Escherichia coli [6],> 32 µg/mL
same,MIC50,Escherichia coli [6],> 32 µg/mL
same,MIC90,Escherichia coli [6],> 32 µg/mL
same,MIC50,Escherichia coli [7],0.06 µg/mL
same,MIC90,Escherichia coli [7],0.06 µg/mL
same,MIC50,Escherichia coli [8],> 32 µg/mL
same,MIC90,Escherichia coli [8],> 32 µg/mL
same,MIC50,Escherichia coli [9],> 32 µg/mL
same,MIC90,Escherichia coli [9],> 32 µg/mL
same,MIC50,Citrobacter freundii [10],32 µg/mL
same,MIC90,Citrobacter freundii [10],> 32 µg/mL
same,MIC50,Klebsiella aerogenes [11],32 µg/mL
same,MIC90,Klebsiella aerogenes [11],> 32 µg/mL
same,MIC50,Enterobacter cloacae [12],32 µg/mL
same,MIC90,Enterobacter cloacae [12],> 32 µg/mL
same,MIC50,Serratia marcescens [13],32 µg/mL
same,MIC90,Serratia marcescens [13],> 32 µg/mL
same,MIC50,Klebsiella aerogenes [14],0.12 µg/mL
same,MIC90,Klebsiella aerogenes [14],> 32 µg/mL
same,MIC50,Citrobacter freundii [15],0.5 µg/mL
same,MIC90,Citrobacter freundii [15],> 32 µg/mL
same,MIC50,Klebsiella pneumoniae [16],0.06 µg/mL
same,MIC90,Klebsiella pneumoniae [16],0.12 µg/mL
same,MIC50,Klebsiella pneumoniae [17],> 32 µg/mL
same,MIC90,Klebsiella pneumoniae [17],> 32 µg/mL
same,MIC50,Klebsiella pneumoniae [18],> 32 µg/mL
same,MIC90,Klebsiella pneumoniae [18],> 32 µg/mL
same,MIC50,Klebsiella pneumoniae [19],32 µg/mL
same,MIC90,Klebsiella pneumoniae [19],> 32 µg/mL
same,MIC50,Klebsiella oxytoca,0.06 µg/mL
same,MIC90,Klebsiella oxytoca,0.12 µg/mL
same,MIC50,Serratia marcescens [20],0.5 µg/mL
same,MIC90,Serratia marcescens [20],> 32 µg/mL
same,MIC50,Morganella morganii,0.06 µg/mL
same,MIC90,Morganella morganii,8 µg/mL
same,MIC50,Proteus mirabilis,≤ 0.03 µg/mL
same,MIC90,Proteus mirabilis,> 32 µg/mL
same,MIC50,Proteus vulgaris,32 µg/mL
same,MIC90,Proteus vulgaris,> 32 µg/mL
same,MIC50,Providencia rettgeri,0.06 µg/mL
same,MIC90,Providencia rettgeri,> 32 µg/mL
same,MIC50,Providencia stuartii,0.06 µg/mL
same,MIC90,Providencia stuartii,> 32 µg/mL
same,MIC50,[21],> 32 µg/mL
same,MIC90,[21],> 32 µg/mL
same,MIC50,Acinetobacter baumannii,> 32 µg/mL
same,MIC90,Acinetobacter baumannii,> 32 µg/mL
same,MIC50,[22],2 µg/mL
same,MIC90,[22],8 µg/mL
same,MIC50,Acinetobacter johnsonii,2 µg/mL
same,MIC90,Acinetobacter johnsonii,8 µg/mL
same,MIC50,Acinetobacter junii,2 µg/mL
same,MIC90,Acinetobacter junii,8 µg/mL
same,MIC50,Acinetobacter lwoffii,2 µg/mL
same,MIC90,Acinetobacter lwoffii,8 µg/mL
CO[C@@]1(NC(=O)Cc2cccs2)C(=O)N2C(C(=O)O)=C(COC(N)=O)CS[C@@H]21 [CEFOXITIN],MIC50,Bacteroides fragilis,8 µg/mL
same,MIC90,Bacteroides fragilis,16 µg/mL
same,MIC,[23],16 µg/mL
same,MIC50,[23],16 µg/mL
same,MIC90,[23],32 µg/mL
same,MIC50,Bacteroides uniformis,16 µg/mL
same,MIC90,Bacteroides uniformis,16 µg/mL
same,MIC50,Clostridium perfringens,1 µg/mL
same,MIC90,Clostridium perfringens,2 µg/mL
same,MIC50,[24],0.25 µg/mL
same,MIC90,[24],1 µg/mL
same,MIC50,Parvimonas micra,0.5 µg/mL
same,MIC90,Parvimonas micra,0.5 µg/mL
